For data set [1], the target named is T1, hTRPC5 (Homo sapiens, UniProt Q9UL62).
T1 construct: expressed in transfected cells; host or cells: HEK-293
T1 sequence (Q9UL62 1-973): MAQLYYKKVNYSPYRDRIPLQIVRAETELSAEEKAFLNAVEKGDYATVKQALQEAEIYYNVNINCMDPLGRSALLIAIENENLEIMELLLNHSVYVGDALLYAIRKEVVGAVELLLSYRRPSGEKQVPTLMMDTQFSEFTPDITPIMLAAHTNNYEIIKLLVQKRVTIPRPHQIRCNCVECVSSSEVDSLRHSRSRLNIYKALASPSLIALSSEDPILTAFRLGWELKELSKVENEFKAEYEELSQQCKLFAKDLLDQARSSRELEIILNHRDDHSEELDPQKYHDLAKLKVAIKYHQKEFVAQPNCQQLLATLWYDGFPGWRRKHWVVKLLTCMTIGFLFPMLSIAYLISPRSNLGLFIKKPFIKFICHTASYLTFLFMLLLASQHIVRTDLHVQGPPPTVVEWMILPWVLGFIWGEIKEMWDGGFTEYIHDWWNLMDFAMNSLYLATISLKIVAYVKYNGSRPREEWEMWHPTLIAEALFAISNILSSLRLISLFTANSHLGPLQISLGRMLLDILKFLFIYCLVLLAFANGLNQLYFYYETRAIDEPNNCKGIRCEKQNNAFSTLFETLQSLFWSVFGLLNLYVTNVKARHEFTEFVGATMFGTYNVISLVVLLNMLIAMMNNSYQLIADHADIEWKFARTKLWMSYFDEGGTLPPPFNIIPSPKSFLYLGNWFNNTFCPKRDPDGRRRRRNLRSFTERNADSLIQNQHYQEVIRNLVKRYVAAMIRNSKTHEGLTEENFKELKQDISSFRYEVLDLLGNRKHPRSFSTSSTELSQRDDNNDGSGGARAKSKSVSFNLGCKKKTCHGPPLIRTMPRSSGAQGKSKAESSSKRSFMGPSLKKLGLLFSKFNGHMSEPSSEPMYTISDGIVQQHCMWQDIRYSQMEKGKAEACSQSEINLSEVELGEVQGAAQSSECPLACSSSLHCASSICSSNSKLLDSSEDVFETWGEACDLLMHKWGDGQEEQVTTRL
The experiment in a line: TRPC5 agonist activity assay (FLIPR calcium fluorescence). The format is cell-based. Particulars: Table 2, agonist activity on TRPC5 channels. How it is done: HEK-293 cells expressing hTRPC5 were seeded into PDL-coated black-walled 96-well plates, with 2×10^4 cells per well. After 8 hours of culture, the original culture medium was discarded, and 60 µL of 4 µM Fluo-4/AM dye was added immediately. The cells were incubated at 37 °C for 60 minutes, and then rinsed with calcium flow detection buffer 5 times. The cell plates were placed in FLIPR®TETRA (Molecular Devices, Sunnyvale, CA, USA) preheated at 30 °C, excited at a wavelength of 488 nm, and the fluorescence signals were continuously recorded in the range of 515-535 nm with a sampling frequency of 1 s. After recording for 360 seconds, solvent control and test compounds were added, and the fluorescence signal was collected for another 600 seconds. The fluorescence signal of the trajectory diagram is represented by F/F0, wherein F is the fluorescence signal at different time points, and F0 is the basic fluorescence signal, that is, the average value of the fluorescence signal at the first 10 time points. The dose-effect diagram first took F/F0 =1 as the baseline. The area under the curve of the change in fluorescence intensity after adding test compound was calculated. IC50 value was calculated using log[agonist] vs. response - Variable slope, taking into account the area under the curve and the log value of the concentration of the compound.

A short description of data set [2]: Liver microsome stability test, human. Conditions: for Stability Evaluation / MF %: Human liver microsomes; for MF %: metabolic bioavailability.
A short description of data set [3]: Preliminary pharmacokinetic evaluation, plasma drug concentration after oral administration to mice. The class given is in vivo, ICR mice. Particulars: male, ICR, mouse, oral 10 mg/kg, Mean ± SD, N = 3. The procedure:
The test compound was prepared according to the following solvent: an aqueous solution of DMSO/Tween 80/0.5% (m/v) CMC-Na at a ratio of 2:2:96 (v/v/v), with a drug concentration of 1 mg/mL. Then, the test compound was gavaged to mice at a dosage of 10 mL/kg, with a dose of 10 mg/kg. Each compound was administered to 3 mice. At 1h and 4h after administration, about 50 µL of blood was collected from the orbital venous plexus of the mouse and placed in a centrifuge tube containing EDTA-K2 anticoagulant.

For data set [4], the target named is T1, hTRPC5. The experiment in a line: TRPC5 inhibitory activity assay (FLIPR calcium fluorescence, Englerin A stimulation). The class given is cell-based. Conditions: Table 1, TRPC5 channels, HEK-293 cells expressing hTRPC5; read-out: FLIPR IC50. How it is done: HEK-293 cells expressing hTRPC3, hTRPC4 or hTRPC5 were seeded into black-bottomed 96-well plates coated with poly-lysine (PDL), with 2×10^4 cells per well. After 8 h of culture, the original culture medium was discarded, and 60 µL of Fluo-4/AM dye with a final concentration of 4 µM was added. The plates were incubated at 37 °C for 60 min, and then rinsed five times with calcium flow detection buffer. […] Then, the agonist Englerin A (EA) (MedChemExpress, Shanghai, China, final concentration of 0.3nM) was added, and the fluorescence signal was collected for 600 seconds. The fluorescence signal of the trajectory diagram is represented by F/F0, wherein F is the fluorescence signal at different time points, and F0 is the basic fluorescence signal, that is, the average value of the fluorescence signal at the first 10 time points. […] The area under the curve of the change in fluorescence intensity after adding EA was calculated. IC50 value was calculated using log[Inhibitor] vs. response - Variable slope, taking into account the area under the curve and the log value of the concentration of the compound.

A short description of data set [5]: Liver microsome stability test, mouse. Particulars: Mouse liver microsomes; for MF %: metabolic bioavailability. The class given is in vitro ADME. The source says: Calculation of Intrinsic Clearance: Clint = (1000 × slope)/(P); [formula]

Usually EC50 stands for the concentration at which the effect is half-maximal. As to `CC(C)OC1CCC(F)(c2nc3c(c(=O)n(CCCO)c(=O)n3C)n2Cc2ccc(Cl)cc2)CC1` (stereo not drawn) [Example E19, 7-(4-chlorobenzyl)-8-(1-fluoro-4-isopropoxycyclohexyl)-1-(3-hydroxypropyl)-3-methyl-3,7-dihydro-1H-purine-2,6-dione], the EC50 at hTRPC5 [1] was 74.5 nM.

Turning to `COC1(c2nc3c(c(=O)n(CCCO)c(=O)n3C)n2Cc2ccc(Cl)cc2)CCC(C)(C)CC1` [Example E26, 7-(4-chlorobenzyl)-1-(3-hydroxypropyl)-8-(1-methoxy-4,4-dimethylcyclohexyl)-3-methyl-3,7-dihydro-1H-purine-2,6-dione], the concentration for a half-maximal effect (EC50) on hTRPC5 [1] is 100 to 200 nM.

As for `Cn1c(=O)n(CCCO)c(=O)c2c1nc(C1(F)CCC(c3ccccc3)CC1)n2Cc1ccc(Cl)cc1` (stereo not drawn) [Example E54, 7-(4-chlorobenzyl)-8-(1-fluoro-4-phenylcyclohexyl)-1-(3-hydroxypropyl)-3-methyl-3,7-dihydro-1H-purine-2,6-dione], the EC50 at hTRPC5 [1] came out at 170 nM.

With `Cn1c(=O)n(CCCO)c(=O)c2c1nc(C1(F)CCC(F)(F)CC1)n2Cc1cc(F)cc(F)c1` [Example E61, 7-(3,5-difluorobenzyl)-1-(3-hydroxypropyl)-3-methyl-8-(1,4,4-trifluorocyclohexyl)-3,7-dihydro-1H-purine-2,6-dione], in data set [2], the “Stability Evaluation” value is on record as “Better (MF% >70%, better metabolic stability)” and the MF % was determined as 77.4%.

In data set [3], `CC(C)n1c(=O)n(CCCO)c(=O)c2c1nc(C1(F)CCC(F)(F)CC1)n2Cc1ccc(F)cc1` [Example E46, 7-(4-fluorobenzyl)-1-(3-hydroxypropyl)-3-isopropyl-8-(1,4,4-trifluorocyclohexyl)-3,7-dihydro-1H-purine-2,6-dione] returned a concentration at 1 h of 1170 ± 410 ng/mL and a concentration at 4 h of 576 ± 117 ng/mL.

By half-life is commonly meant how long it takes for the measured level to halve. Low values mean fast loss, high ones slow loss. As a reminder, the IC50 is the midpoint of a concentration-inhibition curve. As for `Cn1c(=O)n(CCCO)c(=O)c2c1nc(C1(F)CCC(C(F)(F)F)CC1)n2Cc1ccccc1` (stereo not drawn) [Example E63, 7-benzyl-8-(1-fluoro-4-(trifluoromethyl)cyclohexyl)-1-(3-hydroxypropyl)-3-methyl-3,7-dihydro-1H-purine-2,6-dione], in data set [2], the “Stability Evaluation” value was “Better (MF% >70%, better metabolic stability)” and the MF % is 74.4%. Further, the half-life at 1 µM in data set [2] (human, liver microsomes, pH 7.4) came out at 5.18 h. For the same compound, the 50% inhibitory concentration (IC50) on hTRPC5 [4] was 0.86 nM. For the same compound, in data set [3], the concentration at 1 h was 2800 ± 860 ng/mL and the concentration at 4 h stood at 2060 ± 755 ng/mL.

Consider `CC(C)OC1CCC(c2nc3c(c(=O)n(CCCO)c(=O)n3C)n2Cc2ccc(Cl)cc2)CC1` (stereo not drawn) [Example E7, 7-(4-chlorobenzyl)-1-(3-hydroxypropyl)-8-(4-isopropoxycyclohexyl)-3-methyl-3,7-dihydro-1H-purine-2,6-dione], for which the 50% effective concentration (EC50) on hTRPC5 [1] came to 36.1 nM.

In the case of `Cn1c(=O)n(CCCO)c(=O)c2c1nc(C1(F)CCC(N3CCCC3)CC1)n2Cc1ccc(Cl)cc1` (stereo not drawn) [Example E55, 7-(4-chlorobenzyl)-8-(1-fluoro-4-(pyrrolidin-1-yl)cyclohexyl)-1-(3-hydroxypropyl)-3-methyl-3,7-dihydro-1H-purine-2,6-dione], the EC50 on hTRPC5 [1] was found to be 700 nM.

`Cn1c(=O)n(CCCO)c(=O)c2c1cc(C1CCC(c3ccccc3)CC1)n2Cc1ccc(Cl)cc1` (stereo not drawn) [Example E5, 5-(4-chlorobenzyl)-3-(3-hydroxypropyl)-1-methyl-6-(4-phenylcyclohexyl)-1,5-dihydro-2H-pyrrolo[3,2-d]pyrimidine-2,4(3H)-dione]: the EC50 on hTRPC5 [1] was 141 nM.

As for `Cn1c(=O)n(CCCO)c(=O)c2c1nc(C1(F)CCC(F)(F)CC1)n2Cc1ccc(F)cc1` [Example E45, 7-(4-fluorobenzyl)-1-(3-hydroxypropyl)-3-methyl-8-(1,4,4-trifluorocyclohexyl)-3,7-dihydro-1H-purine-2,6-dione], in data set [5], the “Stability Evaluation” value is listed as “Medium (30%<MF%<70%, medium metabolic stability)” and the MF % turned out to be 59.1%. In data set [2], the “Stability Evaluation” value is “Medium (30%<MF%<70%, medium metabolic stability)” and the MF % was 67.0%.

In the case of `Cn1c(=O)n(CCCO)c(=O)c2c1nc(C1(F)CCC(F)(F)CC1)n2Cc1ccc(F)cc1F` [Example E64, 7-(2,4-difluorobenzyl)-1-(3-hydroxypropyl)-3-methyl-8-(1,4,4-trifluorocyclohexyl)-3,7-dihydro-1H-purine-2,6-dione], in data set [5], the “Stability Evaluation” value was “Medium (30%<MF%<70%, medium metabolic stability)” and the MF % amounted to 56.4%. For the same compound, in data set [2], the “Stability Evaluation” value was “Better (MF% >70%, better metabolic stability)” and the MF % came out at 72.5%.

In the case of `Cn1c(=O)n(CCCO)c(=O)c2c1nc(C1(F)CCC(F)(F)CC1)n2Cc1ccc(C#N)cc1` [Example E72, 4-((1-(3-hydroxypropyl)-3-methyl-2,6-dioxo-8-(1,4,4-trifluorocyclohexyl)-1,2,3,6-tetrahydro-7H-purin-7-yl)methyl)benzonitrile], in data set [2], the “Stability Evaluation” value was “Medium (30%<MF%<70%, medium metabolic stability)” and the MF % stood at 66.7%.

As for `Cn1c(=O)n(CCCO)c(=O)c2c1nc(C1(F)CCC(F)(F)CC1)n2Cc1ccc(Cl)cc1` [Example E38, 7-(4-chlorobenzyl)-1-(3-hydroxypropyl)-3-methyl-8-(1,4,4-trifluorocyclohexyl)-3,7-dihydro-1H-purine-2,6-dione], in data set [5], the “Stability Evaluation” value is reported as “Medium (30%<MF%<70%, medium metabolic stability)” and the MF % was 42.1%. Further, in data set [2], the “Stability Evaluation” value is on record as “Medium (30%<MF%<70%, medium metabolic stability)” and the MF % was 50.5%.

In data set [3], `Cn1c(=O)n(CCCO)c(=O)c2c1nc(C1(F)CCC(F)(F)CC1)n2Cc1ccc(Cl)cc1F` [Example E70, 7-(4-chloro-2-fluorobenzyl)-1-(3-hydroxypropyl)-3-methyl-8-(1,4,4-trifluorocyclohexyl)-3,7-dihydro-1H-purine-2,6-dione] returned a concentration at 1 h of 1260 ± 167 ng/mL and a concentration at 4 h of 1200 ± 110 ng/mL.

As to `C/C(=N\OC(C)(C)C)c1nc2c(c(=O)n(CCCO)c(=O)n2C)n1Cc1ccc(Cl)cc1` [Example E27, (E)-8-(1-(tert-butoxyimino)ethyl)-7-(4-chlorobenzyl)-1-(3-hydroxypropyl)-3-methyl-3,7-dihydro-1H-purine-2,6-dione], on hTRPC5 [4], the 50% inhibitory concentration (IC50) was found to be 64.7 nM.

The values are drawn from patent EP4663640A1 (Shanghai Institute of Materia Medica, Chinese Academy of …, priority 2023, dated 2024).
